Measurements as given in PMC7725003, “Systematically Studying the Optimal Amino Acid Distribution Patterns of the Amphiphilic Structure by Using the Ultrashort Amphiphiles” (Frontiers in Microbiology, 2020).
Where no end group is shown, it is not given here.

Legend:
E. coli O78 = type: cell-based, Escherichia coli; conditions: O78, 24 h
Method in brief: (§1)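 Broth microdilution adapted from NCCLS. Peptide series in 0.2% BSA meets an equal volume of MHB culture at 0.5–1 × 10^6 CFU mL^–1; 24 h incubation at 37°C; MIC read as 95% growth inhibition at 492 nm.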

E. coli UB1005 = type: cell-based, Escherichia coli; conditions: UB1005, 24 h
Method in brief: as §1

E. coli 25922 [1] = type: cell-based, Escherichia coli; conditions: 25922, 24 h
Method in brief: as §1

S. aureus 29213 [2] = type: cell-based, Staphylococcus aureus; conditions: 29213, 24 h
Method in brief: as §1

S. aureus 25923 = type: cell-based, Staphylococcus aureus; conditions: 25923, 24 h
Method in brief: as §1

E. coli 25922 [3] = experiment: Time-kill kinetics; type: cell-based, Escherichia coli; conditions: 1 × MIC concentration (Figure 5 legend: 1× MBC); mean of three independent experiments
Source text: (§2) The kinetics of the sterilization activity of the peptide was further evaluated. […] The results of the kinetic were the mean values of three independent experiments, and each independent experiment contained three technical replicates.

S. typhimurium 14028 = type: cell-based, Salmonella typhimurium; conditions: 14028, 24 h
Method in brief: as §1

S. typhimurium 7731 = type: cell-based, Salmonella typhimurium; conditions: 7731, 24 h
Method in brief: as §1

Gram-negative bacteria = test system: Gram-negative bacteria
Method in brief: (§3)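 MIC is the lowest peptide concentration giving 95% growth inhibition, read at 492 nm after 24 h incubation at 37°C. Peptides were serially diluted in 0.2% BSA and added to mid-logarithmic cells at 0.5–1 × 10^6 CFU mL^–1 in MHB, following a modified NCCLS method, with more than 3 repeats.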

Gram-positive bacteria = test system: Gram-positive bacteria
Method in brief: as §3

MRSA 43300 = type: cell-based, methicillin-resistant S. aureus
Method in brief: as §1

S. aureus 29213 [4] = experiment: Salt sensitivity assay (MIC); type: cell-based, Staphylococcus aureus
Method in brief: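 Physiological salts (150 mM NaCl, 4.5 mM KCl, 6 μM NH4Cl, 8 μM ZnCl2, 1 mM MgCl2, 2mM CaCl2, 4 μM FeCl3) added to MHB. Bacteria at 0.5–1 × 10^6 CFU/mL exposed to serially diluted peptides for 24 h at 37°C. MIC read as lowest peptide concentration giving 95% growth inhibition by absorbance at 492 nm.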

P. aeruginosa 27853 = type: cell-based, Pseudomonas aeruginosa; conditions: 27853, 24 h
Method in brief: as §1

S. epidermidis 12228 = type: cell-based, Staphylococcus epidermidis; conditions: 12228, 24 h
Method in brief: as §1

E. faecalis 29212 = type: cell-based, Enterococcus faecalis; conditions: 29212, 24 h
Method in brief: as §1

[5] = test system: Listeria monocytogenes CGMCC 1.1075; type: cell-based; conditions: CGMCC 1.1075, 24 h
Method in brief: as §1

S. aureus 29213 [6] = experiment: Time-kill kinetics; type: cell-based, Staphylococcus aureus; conditions: 1 × MIC concentration (Figure 5 legend: 1× MBC); mean of three independent experiments
Source text: as §2

E. coli ATCC 25922 = experiment: Salt sensitivity assay (MIC); type: cell-based, Escherichia coli
Method in brief: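 Peptides diluted serially in 0.2% BSA solution were combined at identical volumes with mid-logarithmic E. coli ATCC 25922 in MHB (0.5–1 × 10^6 CFU mL^–1) in 96-well plates, with or without a physiological salt. Plates were incubated for 24 h at 37°C. MIC was the lowest concentration inhibiting 95% of growth, measured as absorbance at 492 nm on a microplate reader.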

S. pullorum 7913 = type: cell-based, Salmonella pullorum; conditions: 7913, 24 h
Method in brief: as §1

B. subtilis 63501 = type: cell-based, Bacillus subtilis; conditions: 63501, 24 h
Method in brief: as §1

[7] = therapeutic index TI = MHC/GM MIC
[8] = no added salt, three independent assays

RLRLRLRLL-NH2 [L5]
MBC (E. coli O78): 4 µM
MIC (E. coli O78): 2 µM
MBC (E. coli UB1005): 8 µM
MIC (E. coli UB1005): 4 µM
MBC (E. coli 25922 [1]): 4 µM
MIC (E. coli 25922 [1]): 2 µM
MBC (S. aureus 29213 [2]): 16 µM
MIC (S. aureus 29213 [2]): 8 µM
MBC (S. aureus 25923): 16 µM
MIC (S. aureus 25923): 8 µM
time to obliterate the growth of 99.99% of bacteria (E. coli 25922 [3]): ≤ 3 min
MBC (S. typhimurium 14028): 8 µM
MIC (S. typhimurium 14028): 4 µM
MBC (S. typhimurium 7731): 8 µM
MIC (S. typhimurium 7731): 4 µM
GM MIC (Gram-negative bacteria; geometric mean of MICs, 9 Gram-negative strains (Table 2)): 3.17 µM
TI, Gram-negative bacteria (Gram-negative bacteria; [7]): 80.76
GM MIC (Gram-positive bacteria; geometric mean of MICs, 7 Gram-positive strains (Table 2)): 5.94 µM
TI, Gram-positive bacteria (Gram-positive bacteria; [7]): 43.10
MIC (MRSA 43300; MHB, 24 h 37°C, 95% growth inhibition): 8 µM
MBC (MRSA 43300; value in brackets, >99.9% of cells killed): 16 µM
MIC, FeCl3 (S. aureus 29213 [4]; 4 μM FeCl3): 8 µM
MIC, NH4Cl (S. aureus 29213 [4]; 6 μM NH4Cl): 8 µM
MIC, ZnCl2 (S. aureus 29213 [4]; 8 μM ZnCl2): 8 µM
MIC, MgCl2 (S. aureus 29213 [4]; 1 mM MgCl2): 8 µM
MIC, CaCl2 (S. aureus 29213 [4]; 2 mM CaCl2): 16 µM
MIC, KCl (S. aureus 29213 [4]; 4.5 mM KCl): 8 µM
MIC, NaCl (S. aureus 29213 [4]; 150 mM NaCl): 64 µM
MIC, Control (S. aureus 29213 [4]; [8]): 8 µM
MBC (P. aeruginosa 27853): 16 µM
MIC (P. aeruginosa 27853): 8 µM
MBC (S. epidermidis 12228): 16 µM
MIC (S. epidermidis 12228): 8 µM
MBC (E. faecalis 29212): 32 µM
MIC (E. faecalis 29212): 16 µM
MBC [5]: 8 µM
MIC [5]: 4 µM
time to clear off the growth of 99.99% of bacteria (S. aureus 29213 [6]): ≤ 0.08 min
MIC, FeCl3 (E. coli ATCC 25922; 4 μM FeCl3): 0.5 µM
MIC, NH4Cl (E. coli ATCC 25922; 6 μM NH4Cl): 0.5 µM
MIC, ZnCl2 (E. coli ATCC 25922; 8 μM ZnCl2): 0.5 µM
MIC, MgCl2 (E. coli ATCC 25922; 1 mM MgCl2): 0.5 µM
MIC, CaCl2 (E. coli ATCC 25922; 2 mM CaCl2): 2 µM
MIC, KCl (E. coli ATCC 25922; 4.5 mM KCl): 0.5 µM
MIC, NaCl (E. coli ATCC 25922; 150 mM NaCl): 4 µM
MIC, Control (E. coli ATCC 25922; [8]): 2 µM
MBC (S. pullorum 7913): 4 µM
MIC (S. pullorum 7913): 2 µM
MBC (B. subtilis 63501): 2 µM
MIC (B. subtilis 63501): 1 µM
